Results as given in patent US9753023B2, “Nanofiber grid and related methods” (Carnegie Mellon University, priority 2015, dated 2017).
Entries after “also recorded” stand apart in the source; their conditions may differ.

Columns and labels:
Type in all cases: cell-based
[1] = tested on: C2C12 mouse myoblasts; experiment: Nanonet probe system: single-cell force evolution under cyclic sub-failure stretch with drug; conditions: 30-minute period; for reduction in force: cycled at 1× (one stretch per two minutes), strain rate 2 μm/s
Source text: The use of a suspended nanonet platform for measuring C2C12 mouse myoblast forces attached to fibers of three diameters (250, 400, and 800 nm) representing a wide range of structural stiffness (3-50 nN/μm) in connection with the NFM is developed to allow investigations in cell adhesion forces in response to symmetric and asymmetric external perturbation in single and cyclic modes at high magnifications in real time. The combined findings are two-fold: (i) contractility-based inside-out forces are evenly distributed at the edges of the cell, and that overall force magnitudes are dependent on fiber structural stiffness, and (ii) external perturbation in symmetric and asymmetric modes biases cell-fiber failure location, without affecting the outside-in forces of cell-fiber adhesion (FIG. 5). Further measured are forces of (i) cell-cell junctions, (ii) cyclic perturbation of single cells in presence of drugs, and (iii) cancerous single-cells transitioning from a blebbing to pseudopodial morphology.
Polymeric solutions of polystyrene (Scientific Polymer Products Inc., Ontario, N.Y., Mw: 2×10^6 g·mol^−1) dissolved in xylene (Fisher Scientific, Pittsburgh, Pa.) at 14% and 5% (w/w) were prepared. Plastic coverslips (Fisher Scientific, Pittsburgh, Pa.) were cut to hollow frames and used as substrates. Suspended and aligned polystyrene (PS) nanofibers of varying diameters, spacing and orientation were deposited onto a rotating plastic hollow frame in criss-crossed patterns using the STEP platform at room temperature and 15% relative humidity. Using a custom solvent evaporation-based fusing method, the nodes of the criss-crossed patterned nanofibers were fused to form STEP nanonets with clamped boundary conditions. […]
To further evaluate the nanonet probe system for efficacy as a drug testing platform at high magnifications and temporal resolutions, we subjected cells to varying concentrations of the rho kinase (ROCK)-inhibitor Y27632 and monitored its force evolution over the same 30-minute period. […]

[2] = tested on: C2C12 mouse myoblasts; experiment: Stress relaxation test (step strain) fitted to the standard linear solid (SLS) model
Procedure: Polymeric solutions of polystyrene (Scientific Polymer Products Inc., Ontario, N.Y., Mw: 2×10^6 g·mol^−1) dissolved in xylene (Fisher Scientific, Pittsburgh, Pa.) at 14% and 5% (w/w) were prepared. Plastic coverslips (Fisher Scientific, Pittsburgh, Pa.) were cut to hollow frames and used as substrates. Suspended and aligned polystyrene (PS) nanofibers of varying diameters, spacing and orientation were deposited onto a rotating plastic hollow frame in criss-crossed patterns using the STEP platform at room temperature and 15% relative humidity. […]
As cells experience forces, interactions between cytosol and cytoskeletal structures within their semi-permeable membrane elicit strain-rate dependent responses, but identifying physiological mechanisms for this behavior has proven difficult [Janmey, P. A., et al., J. Biol. Chem. 1994; 269:32503-13; Darling, E. M., et al., Biophys. […] Since viscoelasticity can alter the measured force at different strain rates, it is nonetheless an important parameter to qualitatively describe even without complete knowledge of the contribution of individual cellular components [Ketene, A. N., et al., Integr. […] Viscoelastic response is quantified through the classic stress relaxation test [Nagayama, K., et al., Med. Eng. […]

[3] = tested on: DBTRG-05MG glioma cells; experiment: Outside-in force response to a probe deflecting the leading fiber on nanonets
Procedure: (§1) According to one aspect of the methods described herein, using a highly aggressive glioma model (DBTRG-05MG), the platform technology using nanonets fused in crossed patterns manufactured using the non-electrospinning STEP technique serves to quantify single cell force modulation (both inside-out and outside-in) with and without the presence of a cytoskeleton altering drug (cytochalasin D) using suspended and aligned fiber networks (nanonets) beginning to represent the aligned glioma environment. This platform technology allows to measure contractile single cell forces exerted by glioma cells attached to and migrating along the fiber axis (inside-out). Further, the force response of glioma cells attached to two parallel fibers using a probe deflecting the leading fiber (outside-in) is measured. The forces are calculated using beam deflection within the elastic limit. […] The platform technology also allows for measuring changes in cell morphology, such as shape, area, etc. This technology allows the physiologically relevant aligned fiber networks used as ultra-sensitive force (˜nanoNewtons) probes for investigating drug response and efficacy in disease models at the single cell resolution.

[4] = tested on: DBTRG-05MG glioma cells; experiment: Inside-out contractile single cell force and spreading area on nanonets
Procedure: as §1

C[C@@H](N)[C@H]1CC[C@H](C(=O)Nc2ccncc2)CC1 [Y27632]
reduction in force ([1]; 10 μM): 38% | reduction in force ([1]; 100 μM): 57% | reaching a steady-state force value ([1]; ROCK-inhibited cells versus cyclically-perturbed cells): did not

Cc1ccc2c(c1)C(=O)C1(O)CCN(c3ccccc3)C1=N2 (centres unmarked) [blebbistatin]
relative contributions of SLS parameters k1, k2 and η (normalized) ([2]; 50 μM blebbistatin, myosin-II disrupted): shifting in the relative contributions from k2 to η; also recorded: shift in major contribution from k2 to η

C=C1[C@@H](C)[C@H]2[C@H](Cc3ccccc3)NC(=O)[C@]23[C@H](OC(C)=O)/C=C/[C@@](C)(O)C(=O)[C@@H](C)C/C=C/[C@H]3[C@@H]1O [cytochalasin D]
'outside-in' force response to external strain [3]: decreasing | 'inside-out' contractile forces [4]: decreasing | spreading area of single glioma cells [4]: compromises the spreading area

COC(=O)Nc1nc2ccc(C(=O)c3cccs3)cc2[nH]1 [nocodazole]
relative contributions of SLS parameters k1, k2 and η (normalized) ([2]; 10 μM nocodazole, microtubules depolymerized): shifting in the relative contributions from k2 to η; also recorded: shift in major contribution from k2 to η
